The values that follow come from PubChem BioAssay (NCI).

Test systems include 786-0 renal; A498 renal; A549 NSCLC; COLO 205 colon; EKVX NSCLC; HCT-116 colon; MDA-MB-231 breast; MDA-MB-435; NCI-H460 lung; NCI/ADR-RES ovarian; OVCAR-4 ovarian; RPMI-8226 leukemia; SF-268 CNS; SK-MEL-2 melanoma; SK-OV-3 ovarian; SN12C renal; TK-10 renal; UO-31 renal; IGROV1 ovarian; SF-295 CNS.
Common to all, as to assay: inhibition of tumour cell growth, NCI panel, 48 h

Structures are written as SMILES.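 Where inhibition never reached the appropriate level, the endpoint shown equals the highest concentration tested. Otherwise, values were interpolated linearly from a five-concentration, 48-hour dose response in 96-well plates. TGI: concentration producing complete growth inhibition.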

In the case of `O=c1[nH][nH]c(=O)n1CCCCCCn1c(=O)[nH][nH]c1=O`, the TGI with 786-0 renal, in the assay with A498 renal, with A549 NSCLC, in the assay on COLO 205 colon, in the assay on EKVX NSCLC and in the assay on HCT-116 colon was above 100 µM throughout. The TGI in the assay with MDA-MB-231 breast, with MDA-MB-435, with NCI-H460 lung, with NCI/ADR-RES ovarian, with OVCAR-4 ovarian and with RPMI-8226 leukemia was above 100 µM throughout. The TGI with SF-268 CNS, in the assay on SK-MEL-2 melanoma, in the assay with SK-OV-3 ovarian, in the assay on SN12C renal, with TK-10 renal and with UO-31 renal was above 100 µM throughout.

Consider `S=C1NC2=C(CSC/C2=C\c2cccc(Br)c2)C(c2cccc(Br)c2)N1` (stereo not drawn), for which the TGI with 786-0 renal, in the assay with A498 renal, with A549 NSCLC, in the assay on COLO 205 colon, in the assay on EKVX NSCLC and in the assay on HCT-116 colon was above 100 µM in each case. The TGI in the assay with IGROV1 ovarian, in the assay with MDA-MB-231 breast, in the assay on MDA-MB-435, in the assay with NCI-H460 lung, in the assay on NCI/ADR-RES ovarian and in the assay with OVCAR-4 ovarian was above 100 µM throughout. Moreover, the TGI with RPMI-8226 leukemia, with SF-268 CNS, in the assay with SF-295 CNS, with SK-MEL-2 melanoma, with SK-OV-3 ovarian and in the assay on SN12C renal was above 100 µM throughout. In addition, the TGI in the assay with TK-10 renal was above 100 µM.

Turning to `Cc1nc(C)c(C(=O)NNC(=O)C[N+](C)(C)C)cc1C(=O)NNC(=O)C[N+](C)(C)C`, the TGI in the assay with 786-0 renal, in the assay on A498 renal, with A549 NSCLC, in the assay with COLO 205 colon, in the assay on EKVX NSCLC and with HCT-116 colon was above 100 µM throughout. The TGI in the assay with IGROV1 ovarian, in the assay with MDA-MB-231 breast, with MDA-MB-435, with NCI-H460 lung, in the assay on NCI/ADR-RES ovarian and in the assay with OVCAR-4 ovarian was above 100 µM each time. In addition, the TGI in the assay on SF-268 CNS, in the assay on SF-295 CNS, in the assay on SK-MEL-2 melanoma, with SK-OV-3 ovarian, in the assay with SN12C renal and in the assay with TK-10 renal was above 100 µM in each case. In the assay on UO-31 renal, this compound registered a TGI above 100 µM.

In the case of `CCOS(C)(=O)=O`, the TGI in the assay with 786-0 renal, in the assay with A498 renal, in the assay on A549 NSCLC, in the assay on COLO 205 colon, with EKVX NSCLC and in the assay on HCT-116 colon was above 100 µM in each case. Besides, the TGI in the assay on IGROV1 ovarian, in the assay on MDA-MB-231 breast, in the assay on MDA-MB-435, in the assay on NCI-H460 lung, in the assay with NCI/ADR-RES ovarian and in the assay on OVCAR-4 ovarian was above 100 µM in each case. Moreover, the TGI in the assay on SF-268 CNS, in the assay with SF-295 CNS, in the assay with SK-MEL-2 melanoma, in the assay with SK-OV-3 ovarian, with SN12C renal and in the assay with TK-10 renal was above 100 µM in each case. Besides, the TGI with UO-31 renal is above 100 µM.

Turning to `CCNC(=S)NNC(=O)C12CC3CC(CC(C3)C1)C2`, the TGI with 786-0 renal, with A498 renal, in the assay on A549 NSCLC, in the assay on COLO 205 colon, in the assay on HCT-116 colon and in the assay with IGROV1 ovarian was above 100 µM each time. For the same compound, the TGI with MDA-MB-231 breast, with MDA-MB-435, in the assay on NCI-H460 lung, with NCI/ADR-RES ovarian, in the assay with OVCAR-4 ovarian and with RPMI-8226 leukemia was above 100 µM each time. For the same compound, the TGI in the assay with SF-268 CNS, in the assay on SF-295 CNS, in the assay with SK-MEL-2 melanoma, in the assay with SK-OV-3 ovarian, in the assay on SN12C renal and with TK-10 renal was above 100 µM in each case. Moreover, the TGI in the assay on UO-31 renal was above 100 µM.

Regarding `COc1ccc(-c2nc(SCC(=O)NNC(=S)Nc3ccccc3)[nH]c2-c2ccc(OC)cc2)cc1`, the TGI with 786-0 renal is 60.7 µM; in the assay with A498 renal, 47.9 µM; in the assay on A549 NSCLC it was above 100 µM; with COLO 205 colon, 30.4 µM; with EKVX NSCLC, 75.9 µM; in the assay with HCT-116 colon it was 78 µM. Moreover, the TGI was above 100 µM with IGROV1 ovarian; 95.4 µM with MDA-MB-231 breast; 46.7 µM in the assay on MDA-MB-435; 32.2 µM in the assay on NCI-H460 lung; above 100 µM in the assay on NCI/ADR-RES ovarian; above 100 µM with OVCAR-4 ovarian. The TGI in the assay with SF-268 CNS was 59.8 µM; in the assay on SF-295 CNS it was 39.8 µM; with SK-MEL-2 melanoma, 34.7 µM; in the assay on SK-OV-3 ovarian, above 100 µM; with SN12C renal it was 50.8 µM; in the assay on TK-10 renal it was above 100 µM. In addition, the TGI in the assay with UO-31 renal is above 100 µM.
